The source of these data is ChEMBL document CHEMBL1136637, “Prodrugs to enhance central nervous system effects of the TRH-like peptide pGlu-Glu-Pro-NH2” (Bioorg Med Chem Lett, 2003).

Structures are written as SMILES. Square brackets hold non-standard residues; d marks the D form. Peptide text beside a SMILES is read from it. * marks the point of attachment. ξ: configuration not given here. pGlu = O=C1CC[C@@H](C(=O)O)N1; ξE = NC(CCC(=O)O)C(=O)O; OcHex = C1CCC(O*)CC1; OBn = c1ccc(CO*)cc1; OtBu = CC(C)(C)O* Where only a bound is given, the exact number is not on record here.

Broadly, the half-life is how long it takes for the measured level to halve. Read a high half-life as slow loss. As usually defined, the ED50 is the dose at which the effect has come halfway, by size or by number of responders. A low value points to an effect at a small dose.

Data set [1] in a line: Half-life using mouse brain homogenate. The class given is ADME.
Data set [2] is filed under the species Mus musculus. The experiment in a line: (§1) Effective dose required for producing 50% of the maximum analeptic response was determined. The class given is functional.
The species entered for data set [3] is Mus musculus. Described as §1. The class given is functional, organism-based.

In the case of `CCCCCCOC(=O)CCC(NC(=O)[C@@H]1CCC(=O)N1)C(=O)N1CCC[C@H]1C(N)=O` (some centres not stated), the half-life in data set [1] came out at 22 min. Besides, it took a dose of 2.4 µmol/kg to reach the 50% effect level in the data set filed under Mus musculus [2] (ED50). For `NC(=O)[C@@H]1CCCN1C(=O)C(CCC(=O)OC1CCCCC1)NC(=O)[C@@H]1CCC(=O)N1` (some centres not stated) ([pGlu]-[ξE](OcHex)-Pro-NH2), the half-life in data set [1] was 25 min.

In turn, `COC(=O)CCC(NC(=O)[C@@H]1CCC(=O)N1)C(=O)N1CCC[C@H]1C(N)=O` (some centres not stated) ([pGlu]-[ξE](OMe)-Pro-NH2) displayed a half-life in data set [1] of 20 min. The half-life values of the last two compounds are within 1.5-fold of each other.

For the compound `NC(=O)[C@@H]1CCCN1C(=O)C(CCC(=O)OCc1ccccc1)NC(=O)[C@@H]1CCC(=O)N1` (some centres not stated) ([pGlu]-[ξE](OBn)-Pro-NH2), in data set [1], the half-life was over 120 min. `NC(=O)[C@@H]1CCCN1C(=O)[C@H](CCC(=O)O)NC(=O)[C@@H]1CCC(=O)N1` ([pGlu]-Glu-Pro-NH2) displayed an EC50 in the data set listed under Mus musculus [3] of 23.2 µM/kg. The compound `CC(C)(C)OC(=O)CCC(NC(=O)[C@@H]1CCC(=O)N1)C(=O)N1CCC[C@H]1C(N)=O` (some centres not stated) ([pGlu]-[ξE](OtBu)-Pro-NH2) displayed a half-life in data set [1] of 70 min.
